Measurements from ChEMBL document CHEMBL4359866, “A computer-assisted discovery of novel potential anti-obesity compounds as selective carbonic anhydrase VA inhibitors” (Eur J Med Chem, 2019).

What was measured:
[1] = molecular target: Carbonic anhydrase 5A, mitochondrial (Homo sapiens, UniProt P35218); test: Inhibition of recombinant human carbonic anhydrase VA preincubated with enzyme for 15 mins by phenol red dye based stopped flow CO2 hydration assay
Carbonic anhydrase 1 = Carbonic anhydrase 1 (Homo sapiens, UniProt P00915); test: Inhibition of recombinant human carbonic anhydrase 1 preincubated with enzyme for 15 mins by phenol red dye based stopped flow CO2 hydration assay
Carbonic anhydrase 1, sequence (P00915 whole entry): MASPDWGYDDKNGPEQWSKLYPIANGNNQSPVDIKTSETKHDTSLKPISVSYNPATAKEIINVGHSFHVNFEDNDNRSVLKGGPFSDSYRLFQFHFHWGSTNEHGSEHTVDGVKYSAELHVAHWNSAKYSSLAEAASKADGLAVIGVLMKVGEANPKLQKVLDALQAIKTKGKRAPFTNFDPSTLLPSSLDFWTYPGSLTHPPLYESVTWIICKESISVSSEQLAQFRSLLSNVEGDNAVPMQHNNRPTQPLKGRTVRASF

Carbonic anhydrase 2 = Carbonic anhydrase 2 (Homo sapiens, UniProt P00918); test: Inhibition of recombinant human carbonic anhydrase 2 preincubated with enzyme for 15 mins by phenol red dye based stopped flow CO2 hydration assay

Carbonic anhydrase 5A, mitochondrial, sequence (P35218 whole entry): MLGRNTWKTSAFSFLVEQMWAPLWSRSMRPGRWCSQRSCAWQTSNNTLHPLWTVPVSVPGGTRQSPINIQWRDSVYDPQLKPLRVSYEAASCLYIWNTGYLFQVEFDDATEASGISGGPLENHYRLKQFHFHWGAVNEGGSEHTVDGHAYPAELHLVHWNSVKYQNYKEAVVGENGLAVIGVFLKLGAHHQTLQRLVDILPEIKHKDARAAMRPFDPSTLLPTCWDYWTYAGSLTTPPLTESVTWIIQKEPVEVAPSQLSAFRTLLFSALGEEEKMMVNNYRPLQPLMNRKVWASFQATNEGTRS

| Compound | Ki [1] [µM] | Ki (Carbonic anhydrase 1) [µM] | Ki (Carbonic anhydrase 2) [µM] |
| --- | --- | --- | --- |
| CC(=O)c1cc(O)cc(O)c1 |  | > 10 | > 10 |
| O=c1[nH]nc(SCc2ccc(Cl)cc2Cl)c(=O)[nH]1 |  | > 10 | > 10 |
| Nc1ccc2c(n1)[nH]c1ccccc12 |  | > 10 | > 10 |
| O=C(COc1ccc2c3c(c(=O)oc2c1)CCC3)c1ccc(Cl)cc1 | > 10 | > 10 | > 10 |
| O=C(CCNc1n[nH]c(=O)[nH]c1=O)N/N=C\c1c(F)cccc1Cl |  | > 10 | > 10 |
| COc1cc(CC(=O)O)ccc1OS(=O)(=O)O |  | > 10 | > 10 |
| COc1cc2nccc(Oc3ccc(NC(=O)NC4CC4)c(Cl)c3)c2cc1C(N)=O [LENVATINIB] | 0.133 | > 10 | > 10 |

More lines, now with the values ahead:

| Ki [1] [µM] | Ki (Carbonic anhydrase 1) [µM] | Ki (Carbonic anhydrase 2) [µM] | Compound |
| --- | --- | --- | --- |
| 8.71 | > 10 | > 10 | O=C(Cc1nnc(O)nc1O)N/N=C/c1c(O)ccc2ccccc12 |
|  | > 10 | > 10 | O=C(CSc1ccncc1)N[C@@H]1C(=O)N2C(C(=O)O)=C(CO)CS[C@H]12 |
| 9.75 | > 10 | > 10 | Nc1nc(=O)c2nc(CNc3ccc(C(=O)N[C@H](CCC(=O)O)C(=O)O)cc3)cnc2[nH]1 |
| 0.131 | > 10 | > 10 | Nc1nc(F)nc2c1ncn2[C@@H]1O[C@H](COP(=O)(O)O)[C@@H](O)[C@@H]1O [FLUDARABINE PHOSPHATE] |
| 0.344 | > 10 | > 10 | NC(=O)c1cn(Cc2c(F)cccc2F)nn1 [RUFINAMIDE] |
